Test results as given in paper PMC4890880 (ACS infectious diseases, 2016).

Each compound was assayed on HepG2-A16-CD81EGFP cells (assay: cells). Details: Homo sapiens, HepG2, read-out: HepG2 Tox% @ 50 uM rep1.

In order of falling cytotoxicity at 50 µM:
1. CC(C)(C)c1ccc(C(=O)Nc2c3c(nn2-c2cccc(Cl)c2)CSC3)cc1 [MMV666123]  18%
2. O=[N+]([O-])c1ccc(C=NNc2nc3ccccc3[nH]2)cc1 [MMV666607]  14%
3. CCCc1c(C)nc2ccc(Br)cc2c1O [MMV666095]  -21%

Same assay, conditions: Homo sapiens, HepG2, read-out: HepG2 Tox% @ 50 uM rep2

In the case of O=[N+]([O-])c1ccc(C=NNc2nc3ccccc3[nH]2)cc1 [MMV666607], the cytotoxicity at 50 µM is reported as 20%.

Same assay, conditions: Homo sapiens, HepG2, read-out: Tox IC50

CCCc1c(C)nc2ccc(Br)cc2c1O [MMV666095] and CC(C)(C)c1ccc(C(=O)Nc2c3c(nn2-c2cccc(Cl)c2)CSC3)cc1 [MMV666123] cannot be ordered by IC50: > 50 µM for the first, > 50 µM for the second.

In the case of O=[N+]([O-])c1ccc(C=NNc2nc3ccccc3[nH]2)cc1 [MMV666607], the IC50 is reported as > 10 µM.

Same assay, conditions: Homo sapiens, HepG2, read-out: Tox max inhibition (%) @ 10 uM

O=[N+]([O-])c1ccc(C=NNc2nc3ccccc3[nH]2)cc1 [MMV666607] gave an inhibition at 10 µM of 5%.

Same assay, conditions: Homo sapiens, HepG2, read-out: Tox max inhibition (%) @ 50 uM

In order of rising inhibition at 50 µM:
1. CCCc1c(C)nc2ccc(Br)cc2c1O [MMV666095]  -6%
2. CC(C)(C)c1ccc(C(=O)Nc2c3c(nn2-c2cccc(Cl)c2)CSC3)cc1 [MMV666123]  10%

What follows are compounds tested on HepG2-A16-CD81EGFP cells (assay: cells). Details: Homo sapiens, HepG2, read-out: % inhibition.

In order of rising inhibition at 50 µM:
1. CCOc1cc2c(cc1OCC)C(c1cc(C)c(O)c(C)c1)NCC2 (centres unmarked) [MMV000483]  23%
2. COc1ccc(C2Sc3ccccc3N=C3C2=C(O)c2ccccc23)cc1 (centres unmarked) [MMV000563]  62.5%
3. COc1ccccc1CNC(=O)C1c2ccccc2C(=O)N(CC(C)C)C1c1cccs1 (centres unmarked) [MMV000648]  83.2%
4. CC1CCCCN1CCCNC(=O)c1ccc2c(c1)sc1nc(-c3ccc(F)cc3)cn12 (centres unmarked) [MMV000634]  97%

The compounds below were run against QuantiLum Recombinant Luciferase (Photinus pyralis, UniProt P08659) (assay: Bioluminescence quantification of compound luciferase inhibition). Details: not given.
Sequence of QuantiLum Recombinant Luciferase (P08659 whole entry): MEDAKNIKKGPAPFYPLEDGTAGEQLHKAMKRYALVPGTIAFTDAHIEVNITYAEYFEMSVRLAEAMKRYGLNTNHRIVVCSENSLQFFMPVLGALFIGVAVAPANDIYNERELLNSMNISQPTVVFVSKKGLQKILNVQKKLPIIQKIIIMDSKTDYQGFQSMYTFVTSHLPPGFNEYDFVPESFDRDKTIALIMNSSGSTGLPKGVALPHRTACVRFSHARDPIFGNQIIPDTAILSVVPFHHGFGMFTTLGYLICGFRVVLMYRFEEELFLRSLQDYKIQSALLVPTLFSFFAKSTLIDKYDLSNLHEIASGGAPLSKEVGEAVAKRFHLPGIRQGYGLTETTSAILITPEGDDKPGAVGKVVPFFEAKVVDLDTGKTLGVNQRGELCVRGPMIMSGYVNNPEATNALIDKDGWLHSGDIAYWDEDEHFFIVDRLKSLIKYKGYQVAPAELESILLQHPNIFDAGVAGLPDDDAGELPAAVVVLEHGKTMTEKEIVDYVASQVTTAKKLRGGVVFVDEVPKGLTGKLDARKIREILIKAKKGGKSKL

CCCc1c(C)nc2ccc(Br)cc2c1O [MMV666095] and CC(C)(C)c1ccc(C(=O)Nc2c3c(nn2-c2cccc(Cl)c2)CSC3)cc1 [MMV666123] cannot be ordered by IC50: > 50 µM for the first, > 50 µM for the second.

With O=[N+]([O-])c1ccc(C=NNc2nc3ccccc3[nH]2)cc1 [MMV666607] the IC50 was > 20 µM.

Same assay, conditions: read-out: LucInhib max inhibition

In order of falling Emax:
1. O=[N+]([O-])c1ccc(C=NNc2nc3ccccc3[nH]2)cc1 [MMV666607]  30%
2. CCCc1c(C)nc2ccc(Br)cc2c1O [MMV666095]  25%
3. CC(C)(C)c1ccc(C(=O)Nc2c3c(nn2-c2cccc(Cl)c2)CSC3)cc1 [MMV666123]  23%

What follows are compounds tested on Plasmodium berghei (Pb-Luc) exoerythrocytic-stage parasites (assay: microbe, parasite or virus in culture). Details: read-out: Inhibition% @ 50 uM rep1.

In order of rising inhibition at 50 µM:
1. O=[N+]([O-])c1ccc(C=NNc2nc3ccccc3[nH]2)cc1 [MMV666607]  -47%
2. CCOc1cc2c(cc1OCC)C(c1cc(C)c(O)c(C)c1)NCC2 (centres unmarked) [MMV000483]  69%
3. CC(C)(C)c1ccc(C(=O)Nc2c3c(nn2-c2cccc(Cl)c2)CSC3)cc1 [MMV666123]  101%
4. CCCc1c(C)nc2ccc(Br)cc2c1O [MMV666095]  102%
5. COc1ccc(C2Sc3ccccc3N=C3C2=C(O)c2ccccc23)cc1 (centres unmarked) [MMV000563]  103%
6. CC1CCCCN1CCCNC(=O)c1ccc2c(c1)sc1nc(-c3ccc(F)cc3)cn12 (centres unmarked) [MMV000634]  103%
7. COc1ccccc1CNC(=O)C1c2ccccc2C(=O)N(CC(C)C)C1c1cccs1 (centres unmarked) [MMV000648]  103%

Same assay, conditions: read-out: Inhibition% @ 50 uM rep2

In order of rising inhibition at 50 µM:
1. O=[N+]([O-])c1ccc(C=NNc2nc3ccccc3[nH]2)cc1 [MMV666607]  -99%
2. CCOc1cc2c(cc1OCC)C(c1cc(C)c(O)c(C)c1)NCC2 (centres unmarked) [MMV000483]  61%
3. CC(C)(C)c1ccc(C(=O)Nc2c3c(nn2-c2cccc(Cl)c2)CSC3)cc1 [MMV666123]  102%
4. CC1CCCCN1CCCNC(=O)c1ccc2c(c1)sc1nc(-c3ccc(F)cc3)cn12 (centres unmarked) [MMV000634]  103%
5. CCCc1c(C)nc2ccc(Br)cc2c1O [MMV666095]  103%
6. COc1ccc(C2Sc3ccccc3N=C3C2=C(O)c2ccccc23)cc1 (centres unmarked) [MMV000563]  104%
7. COc1ccccc1CNC(=O)C1c2ccccc2C(=O)N(CC(C)C)C1c1cccs1 (centres unmarked) [MMV000648]  105%

Same assay, conditions: read-out: PbLuc IC50, dose response, 1/3 dilutions, max conc. 10 or 50 uM, unit inferred

In order of falling IC50:
1. CC(C)(C)c1ccc(C(=O)Nc2c3c(nn2-c2cccc(Cl)c2)CSC3)cc1 [MMV666123]  10.1 µM
2. CCCc1c(C)nc2ccc(Br)cc2c1O [MMV666095]  0.794 µM

Same assay, conditions: read-out: PbLuc IC50, dose response, unit inferred

O=[N+]([O-])c1ccc(C=NNc2nc3ccccc3[nH]2)cc1 [MMV666607] was tested, and the IC50 was > 10 µM.

Same assay, conditions: read-out: PbLuc max inhibition (%) @ 10 uM

O=[N+]([O-])c1ccc(C=NNc2nc3ccccc3[nH]2)cc1 [MMV666607] showed an inhibition at 10 µM of -2.2%.

Same assay, conditions: read-out: PbLuc max inhibition (%) @ 50 uM

In order of rising inhibition at 50 µM:
1. CC(C)(C)c1ccc(C(=O)Nc2c3c(nn2-c2cccc(Cl)c2)CSC3)cc1 [MMV666123]  103%
2. CCCc1c(C)nc2ccc(Br)cc2c1O [MMV666095]  106%

Tested on: HepG2-A16-CD81EGFP cells
Test: cells
Details: Homo sapiens, HepG2, read-out: % inhibition
Remark: another data set of the same source

In order of rising inhibition at 50 µM:
1. CCOc1cc2c(cc1OCC)C(c1cc(C)c(O)c(C)c1)NCC2 (centres unmarked) [MMV000483]  55.7%
2. COc1ccc(C2Sc3ccccc3N=C3C2=C(O)c2ccccc23)cc1 (centres unmarked) [MMV000563]  71.1%
3. COc1ccccc1CNC(=O)C1c2ccccc2C(=O)N(CC(C)C)C1c1cccs1 (centres unmarked) [MMV000648]  91.6%
4. CC1CCCCN1CCCNC(=O)c1ccc2c(c1)sc1nc(-c3ccc(F)cc3)cn12 (centres unmarked) [MMV000634]  98.9%
